# According to US4803227A, “Aminoalkyl ethers of phenols as anticancer agents for the breast and colon” (The University of Manitoba, priority 1984, dated 1989):
# Where a name gives a salt, the structure may show the parent alone. Read-outs that look alike come from different tables or passages of the source.
# Assays:
# [1] = target: AEBS (anti-estrogen binding site), MCF-7 microsomes; experiment: competition with [3H]-tamoxifen for AEBS, MCF-7 microsomes; set-up: species or system human; conditions: for IC50: read-out: RSBA (M) for AEBS, MCF-7 microsomes
# Description: (§1) *Relative specific binding affinity (RSBA) is the concentration of cold
# (§2) competitor required to displace 50% of the specifically bound label and
# (§3) expresses the affinity of the test compound for the receptor relative to
# (§4) that of the labelled specific ligand, in this instance 1.5 ×
# estrogen receptor (ER) [2] = experiment: competition with [3H] 17 β-estradiol for ER; assay type: binding
# [3] = tested on: MCF-7 human breast cancer cells; experiment: cells; conditions: for IC90: Homo sapiens, MCF7, 168 h, read-out: D10 (concentration required to effect a 90% reduction in the number of MCF7 cells)
# Experimental: Concentrations are shown on the x-axis. […] A longer exposure time (10 days) was employed because this cell line is slower growing than the MCF-7 cell line.
# In the case of MCF-7 cells, approximately 2×10^4 MCF-7 cells were seeded into duplicate 25 cm tissue culture flasks containing Dulbecco's modified Eagle's medium supplemented with insulin (10 μg/ml), glucose ([…])and 5% dextran coated charcoal-stripped fetal calf serum to which was added increasing concentrations of the compound to be tested. Cells were allowed to grow for 7 days with one change of medium containing the test compound on day 4. […] Total cell number at each concentration was determined by Coulter counter. […] D (that concentration required to elicit a 90% reduction in cell number relative to the control after 7 days of treatment) was determined for each compound.
# [4] = target: AEBS (anti-estrogen binding site), rat liver microsomes; experiment: competition with [3H]-tamoxifen for AEBS, rat liver microsomes; conditions: concentration of cold competitor required to displace 50% of specifically bound label, 1.5 × 10^-9 M [3H]-tamoxifen; read-out: RSBA (M) for AEBS, Rat liver microsomes
# Description: as §1, §2, §3, §4
# colon carcinoma (3C872) = experiment: colon tumor test in female rats implanted with colon carcinoma (3C872); assay type: in vivo; conditions: for Tumor wt % of Controls / Tumor Evaluation (wt. mg): intramuscular, twice daily for 7 days; for Tumor Evaluation (wt. mg): control 2261
# Experimental: The rats had been subcutaneously implanted with colon carcinoma (3C872) and were cancerous. […] The wt. of the tumor was measured after the 7-day treatment and reported as a % (average) of the control tumor wt. (average) using 40 control rats.
# [5] = tested on: progesterone receptor (PgR) in MCF-7 cells; experiment: induction of progesterone receptor (PgR) synthesis in MCF-7 cells; assay type: cell-based, human; conditions: 5 days of pre-incubation, 1×10^-8 M
# MCF-7 cells = conditions: 7 days; for reversal of growth inhibition by estradiol: 1×10^-8 M estradiol; for inhibition of growth of MCF-7 cells: tamoxifen 5×10^-7 M, N,N-DPPE 1x-8x tamoxifen concentration
# [6] = literature; cited from earlier work
# estrogen receptor (ER) [7] = conditions: literature; cited from earlier work
# [8] = concentration of cold competitor required to displace 50% of specifically bound label, 1.5 × 10^-9 M [3H]-tamoxifen
# [9] = microsome preparation not given
compound,measurement,setting,value
"c1ccc(Cc2ccc(OCCN3CCOCC3)cc2)cc1 [MPPE, N-morpholino-2-[(4-phenylmethyl)phenoxy]ethanamine hydrochloride]",IC50,[1]; [8],6.6e-07 M
same,binding to AEBS,[1]; [9],bind significantly to AEBS
same,binding to ER,estrogen receptor (ER) [2],only weakly to ER
same,IC90,[3],16 µM
"CCN(CC)CCOc1ccccc1 [N,N-DPEA, N,N-diethyl-2-phenoxyethylamine hydrochloride, reference compound]",IC50,[1]; [8],8e-05 M
same,IC50,[4],4e-05 M
same,IC90,[3],1100 µM
"CCN(CC)CCOc1ccc(Cc2ccccc2)cc1 [N,N-DPPE, N,N-diethyl-2-[(4-phenylmethyl)phenoxy]ethanamine hydrochloride]",IC50,[1]; [8],7e-07 M
same,binding to AEBS,[1]; [9],bind significantly to AEBS
same,Tumor wt % of Controls,colon carcinoma (3C872); 8.00 mg/kg per injection,80%
same,Tumor Evaluation (wt. mg),colon carcinoma (3C872); 8.00 mg/kg per injection,1817 mg
same,Tumor wt % of Controls,colon carcinoma (3C872); 16.00 mg/kg per injection,99%
same,Tumor Evaluation (wt. mg),colon carcinoma (3C872); 16.00 mg/kg per injection,2259 mg
same,Tumor wt % of Controls,colon carcinoma (3C872); 32.00 mg/kg per injection,68%
same,Tumor Evaluation (wt. mg),colon carcinoma (3C872); 32.00 mg/kg per injection,1557 mg
same,reduction in tumor growth,"colon carcinoma (3C872); 32 mg/kg, 7 days",30%
same,optimal dosage,colon carcinoma (3C872); 7-day test,30 to 40 mg/kg
same,results at higher doses,colon carcinoma (3C872); above 60 mg/kg,results became poorer
same,induction of PgR synthesis above control levels,[5],failure to induce significant syn thesis of progesterone receptor (PgR) above control levels
same,reversal of growth inhibition by estradiol,MCF-7 cells,no significant reversal of its effect by estradiol
same,inhibition of growth of MCF-7 cells,MCF-7 cells; absence of estradiol,"significant growth inhibition, but in all cases, less than that for tamoxifen"
same,inhibition of growth of MCF-7 cells,MCF-7 cells; presence of estradiol,significantly (P<0.001) more inhibition than tamoxifen
same,IC50,[4],4e-08 M
same,IC90,[3],16 µM
"CN(C)CCOc1ccccc1Cc1ccccc1 [Phenyltoloxamine, N,N-dimethyl-2[(2-phenylmethyl)phenoxy]ethanamine, reference compound]",anti-histamine effects,[6],pronounced anti-histamine effects
same,IC50,[4],2e-06 M
same,IC90,[3],48 µM
same,concentrations at which compound becomes significantly cytotoxic for MCF-7 cells,"[3]; human, 10080 min",> 100 µM
"CC/C(=C(\c1ccccc1)c1ccc(OCCN(C)C)cc1)c1ccccc1 [Tamoxifen, 1-(p-β-dimethylaminoethoxyphenyl)-trans-1,2-diphenylbut-1-ene, reference compound]",competition for the estrogen receptor,estrogen receptor (ER) [7],compete for the estrogen receptor (ER)
same,reversal of growth inhibition by estradiol,MCF-7 cells,largely but not completely reversed by the addition of 1×10^-8 M estradiol
same,inhibition of growth of MCF-7 cells,MCF-7 cells; absence of estradiol,Significant inhibition
same,IC90,[3],4.8 µM
"C(=C(c1ccccc1)c1ccccc1)c1ccccc1 [Triphenylethylene, triphenylethylene, reference compound]",competition with [3H]-tamoxifen for AEBS,"[1]; at all concentrations tested, microsome preparation not given",fails to compete with [^3 H]-tamoxifen for AEBS
same,"RSBA (M) for AEBS, MCF-7 microsomes",[1]; [8],No affinity
same,competition with [3H] 17 β-estradiol for ER,estrogen receptor (ER) [2]; at higher concentrations,competes with [^3 H] 17 β-estradiol for ER
same,cytotoxic effect on MCF-7 cells,[3],no cytotoxic effect on MCF-7 cells after 7 days of exposure
same,D10 (concentration required to effect a 90% reduction in the number of MCF7 cells),[3]; 7 days of exposure,No effect
